Assay results from US20260365670A1, “EGFR INHIBITORS AND USES THEREOF” (DIZAL (JIANGSU) PHARMACEUTICAL CO., LTD., priority 2022, published 2026).
Read-outs that look alike come from different tables or passages of the source.

Assays:
EGFR wild type = biological target: T1, EGFR wild type (Homo sapiens, UniProt P00533); assay: Inhibition of EGFR wild type biochemical enzymatic activity (HTRF); conditions: EGFR WT, 1 mM ATP, 1 h, room temperature, read-out: IC50 (nM) @WT
T1 construct: purchased Carna Bio
Method in brief: (§1)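 HTRF kinase assay: each EGFR enzyme phosphorylated 1 μM biotinylated TK substrate with 1 mM ATP in buffer containing 5 mM MgCl2, 1 mM MnCl2, 0.01% CHAPS, 1 mM DTT, 0.5% DMSO. After 1 h at room temperature, EDTA detection mix stopped the reaction. IC50 came from a four-parameter logistic fit of the 665/615 nm ratio.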

EGFR L858R = biological target: T2, EGFR L858R (Homo sapiens, UniProt P00533, L858R); assay: Inhibition of EGFR L858R biochemical enzymatic activity (HTRF); conditions: 1 mM ATP, 1 h, room temperature, read-out: IC50 (nM) @L858R
T2 construct: purchased Carna Bio
Method in brief: as §1

EGFR L858R/T790M = biological target: T3, EGFR L858R/T790M (Homo sapiens, UniProt P00533, L858R/T790M); assay: Inhibition of EGFR L858R/T790M biochemical enzymatic activity (HTRF); conditions: EGFR L858R-T790M, 1 mM ATP, 1 h, room temperature, read-out: IC50 (nM) @L858R-T790M
T3 construct: purchased Carna Bio
Method in brief: as §1

EGFR Exon19Del = biological target: T4, EGFR Exon19Del (Homo sapiens, UniProt P00533, DEL746-750); assay: Inhibition of EGFR Exon19Del biochemical enzymatic activity (HTRF); conditions: EGFR Del19, 1 mM ATP, 1 h, room temperature, read-out: IC50 @Del19
T4 construct: purchased Carna Bio
Method in brief: as §1

EGFR Exon19Del/T790M = biological target: T5, EGFR Exon19Del/T790M (Homo sapiens, UniProt P00533, DEL746-750/T790M); assay: Inhibition of EGFR Exon19Del/T790M biochemical enzymatic activity (HTRF); conditions: EGFR Del19-T790M, 1 mM ATP, 1 h, room temperature, read-out: IC50 (nM) @Del19-T790M
T5 construct: purchased Carna Bio
Method in brief: as §1

EGFR[T790M/C797S/L858R] = biological target: T6, EGFR[T790M/C797S/L858R] (Homo sapiens, UniProt P00533, C797S/L858R/T790M); assay: Inhibition of EGFR[T790M/C797S/L858R] biochemical enzymatic activity (HTRF); conditions: EGFR T790M-C797S-L858R, 1 mM ATP, 1 h, room temperature, read-out: IC50 (nM) @T790M- C797S - L858R
T6 construct: purchased Carna Bio
Method in brief: as §1

[1] = biological target: T7, EGFR[T790M/C797S/d746-750] (Homo sapiens, UniProt P00533, C797S/DEL746-750/T790M); assay: Inhibition of EGFR[T790M/C797S/d746-750] biochemical enzymatic activity (HTRF); conditions: EGFR T790M-C797S-Del19, 1 mM ATP, 1 h, room temperature, read-out: IC50 (nM) @T790M - C797S - Del19
T7 construct: purchased Carna Bio
Method in brief: as §1

EGFR (d746-750 C797S) = biological target: T8, EGFR (d746-750 C797S) (Homo sapiens, UniProt P00533, C797S/DEL746-750); assay: Inhibition of EGFR (d746-750 C797S) biochemical enzymatic activity (HTRF); conditions: EGFR Del19-C797S, 1 mM ATP, 1 h, room temperature, read-out: IC50 (nM) @Del19-C797S
T8 construct: purchased signalchem
Method in brief: as §1

EGFR (C797S L858R) = biological target: T9, EGFR (C797S L858R) (Homo sapiens, UniProt P00533, C797S/L858R); assay: Inhibition of EGFR (C797S L858R) biochemical enzymatic activity (HTRF); conditions: EGFR L858-C797S, 1 mM ATP, 1 h, room temperature, read-out: IC50 (nM) @L858-C797S
T9 construct: purchased signalchem
Method in brief: as §1

[2] = system: Ba/F3 cells expressing EGFR mutations; assay: Cell proliferation assay, Ba/F3 cells expressing EGFR mutations (CellTiter-Glo, 72 hours); format: cell-based; conditions: CellTiter-Glo
Method in brief: (§2)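 Ba/F3 cells (5000/well) and PC-9 cells (500/well, RPMI1640 with 10% FBS) were plated overnight and then dosed with a compound concentration series. Viable cells were read at day 0 (G0) and after treatment (G3). GI50 came from curve fits of G0-corrected proliferation relative to DMSO.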

PC-9 = assay: Cell proliferation assay, PC-9 cells (CellTiter-Glo, 72 hours); format: cell-based; conditions: PC9 cells, CellTiter-Glo, read-out: PC9 GI50
Method in brief: as §2

A-431 = assay: Cell proliferation GI50, A-431 cells (Table 6); format: cell-based
[3] = BaF3 cells, EGFR DEL19-C797S, read-out: DEL19-C797S/BaF3 GI50
[4] = BaF3 cells, EGFR DEL19-T790-C797S, read-out: DEL19-T790-C797S/BaF3 GI50
[5] = BaF3 cells, EGFR L858R, read-out: L858R/BaF3 GI50
[6] = BaF3 cells, EGFR L858R-C797S, read-out: L858R-C797S/BaF3 GI50
[7] = BaF3 cells, EGFR L858R-T790-C797S, read-out: L858R-T790-C797S/BaF3 GI50
[8] = BaF3 cells, EGFR L858R-T790M, read-out: L858R-T790M/BaF3 GI50
[9] = EGFR DEL19-T790M, read-out: DEL19-T790M GI50
[10] = Mus musculus, BaF3, 72 h, BaF3 cells, EGFR DEL19-C797S, read-out: DEL19-C797S/BaF3 GI50
[11] = Mus musculus, BaF3, 72 h, BaF3 cells, EGFR DEL19-T790-C797S, read-out: DEL19-T790-C797S/BaF3 GI50
[12] = Mus musculus, BaF3, 72 h, BaF3 cells, EGFR L858R, read-out: L858R/BaF3 GI50
[13] = Mus musculus, BaF3, 72 h, BaF3 cells, EGFR L858R-C797S, read-out: L858R-C797S/BaF3 GI50
[14] = Mus musculus, BaF3, 72 h, BaF3 cells, EGFR L858R-T790-C797S, read-out: L858R-T790-C797S/BaF3 GI50
[15] = Mus musculus, BaF3, 72 h, BaF3 cells, EGFR L858R-T790M, read-out: L858R-T790M/BaF3 GI50
[16] = Mus musculus, BaF3, 72 h, EGFR DEL19-T790M, read-out: DEL19-T790M GI50
[17] = Homo sapiens, A-431, A-431 cells

T3 sequence (P00533 25-1210 T790M/L858R): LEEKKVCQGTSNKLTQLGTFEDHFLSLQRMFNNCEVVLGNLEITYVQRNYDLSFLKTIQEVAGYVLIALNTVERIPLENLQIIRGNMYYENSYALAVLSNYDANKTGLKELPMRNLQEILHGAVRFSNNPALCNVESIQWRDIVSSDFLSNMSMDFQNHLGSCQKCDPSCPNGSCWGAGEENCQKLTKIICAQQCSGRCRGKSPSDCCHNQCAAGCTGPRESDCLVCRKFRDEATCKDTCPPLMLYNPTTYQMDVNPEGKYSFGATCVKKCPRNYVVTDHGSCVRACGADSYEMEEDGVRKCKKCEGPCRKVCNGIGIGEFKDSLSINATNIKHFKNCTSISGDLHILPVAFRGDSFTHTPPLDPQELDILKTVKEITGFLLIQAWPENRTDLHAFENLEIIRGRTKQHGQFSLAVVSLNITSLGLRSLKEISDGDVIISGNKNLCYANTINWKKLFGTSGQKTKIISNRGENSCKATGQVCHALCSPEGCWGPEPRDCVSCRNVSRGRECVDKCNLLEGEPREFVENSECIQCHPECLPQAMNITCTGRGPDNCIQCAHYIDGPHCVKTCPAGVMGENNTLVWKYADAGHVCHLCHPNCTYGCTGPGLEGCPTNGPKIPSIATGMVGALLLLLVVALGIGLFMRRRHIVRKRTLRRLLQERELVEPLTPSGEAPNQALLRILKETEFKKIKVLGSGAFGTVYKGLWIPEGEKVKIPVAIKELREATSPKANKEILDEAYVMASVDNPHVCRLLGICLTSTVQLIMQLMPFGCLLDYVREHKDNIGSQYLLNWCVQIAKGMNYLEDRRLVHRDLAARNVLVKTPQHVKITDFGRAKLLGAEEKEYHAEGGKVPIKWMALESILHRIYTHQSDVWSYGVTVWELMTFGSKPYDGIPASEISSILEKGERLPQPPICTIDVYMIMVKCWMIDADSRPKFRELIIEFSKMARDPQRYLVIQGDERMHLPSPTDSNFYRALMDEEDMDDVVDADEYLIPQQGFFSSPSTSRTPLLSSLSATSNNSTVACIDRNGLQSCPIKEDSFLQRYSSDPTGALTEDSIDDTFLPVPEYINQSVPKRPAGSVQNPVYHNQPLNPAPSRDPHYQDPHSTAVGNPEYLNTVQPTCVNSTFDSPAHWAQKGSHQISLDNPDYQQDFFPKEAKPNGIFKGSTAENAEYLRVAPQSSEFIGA
T2 sequence (P00533 25-1210 L858R): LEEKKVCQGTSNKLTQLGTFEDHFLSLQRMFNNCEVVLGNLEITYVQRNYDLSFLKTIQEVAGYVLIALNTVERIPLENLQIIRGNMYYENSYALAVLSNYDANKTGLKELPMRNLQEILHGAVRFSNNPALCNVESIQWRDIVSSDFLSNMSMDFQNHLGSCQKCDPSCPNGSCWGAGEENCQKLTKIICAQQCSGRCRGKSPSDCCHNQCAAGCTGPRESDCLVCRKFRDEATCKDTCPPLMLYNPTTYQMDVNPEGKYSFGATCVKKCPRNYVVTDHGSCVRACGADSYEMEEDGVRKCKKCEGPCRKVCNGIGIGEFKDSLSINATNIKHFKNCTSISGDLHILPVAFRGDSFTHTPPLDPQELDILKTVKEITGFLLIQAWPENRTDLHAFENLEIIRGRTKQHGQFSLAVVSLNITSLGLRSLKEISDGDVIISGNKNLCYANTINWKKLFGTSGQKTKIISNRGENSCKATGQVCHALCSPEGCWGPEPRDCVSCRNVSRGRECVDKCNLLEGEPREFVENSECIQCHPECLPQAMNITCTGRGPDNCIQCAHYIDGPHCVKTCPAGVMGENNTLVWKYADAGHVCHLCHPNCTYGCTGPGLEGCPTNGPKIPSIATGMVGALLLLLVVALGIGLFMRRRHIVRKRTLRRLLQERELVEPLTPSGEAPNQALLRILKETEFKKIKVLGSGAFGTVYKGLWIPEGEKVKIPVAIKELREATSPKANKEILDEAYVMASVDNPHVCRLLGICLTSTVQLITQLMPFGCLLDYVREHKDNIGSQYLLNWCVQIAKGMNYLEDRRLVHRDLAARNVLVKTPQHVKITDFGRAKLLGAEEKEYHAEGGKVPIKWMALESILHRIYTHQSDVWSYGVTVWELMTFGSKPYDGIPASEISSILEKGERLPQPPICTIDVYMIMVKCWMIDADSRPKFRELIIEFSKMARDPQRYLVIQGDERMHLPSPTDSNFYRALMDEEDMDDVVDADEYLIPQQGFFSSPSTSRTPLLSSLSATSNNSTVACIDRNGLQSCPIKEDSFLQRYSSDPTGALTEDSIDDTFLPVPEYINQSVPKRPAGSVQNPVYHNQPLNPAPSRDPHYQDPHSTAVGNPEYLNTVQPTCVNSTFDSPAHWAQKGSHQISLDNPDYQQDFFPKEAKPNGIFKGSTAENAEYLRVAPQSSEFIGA
T4 sequence (P00533 with tags, fused parts or gaps DEL746-750 limits assumed): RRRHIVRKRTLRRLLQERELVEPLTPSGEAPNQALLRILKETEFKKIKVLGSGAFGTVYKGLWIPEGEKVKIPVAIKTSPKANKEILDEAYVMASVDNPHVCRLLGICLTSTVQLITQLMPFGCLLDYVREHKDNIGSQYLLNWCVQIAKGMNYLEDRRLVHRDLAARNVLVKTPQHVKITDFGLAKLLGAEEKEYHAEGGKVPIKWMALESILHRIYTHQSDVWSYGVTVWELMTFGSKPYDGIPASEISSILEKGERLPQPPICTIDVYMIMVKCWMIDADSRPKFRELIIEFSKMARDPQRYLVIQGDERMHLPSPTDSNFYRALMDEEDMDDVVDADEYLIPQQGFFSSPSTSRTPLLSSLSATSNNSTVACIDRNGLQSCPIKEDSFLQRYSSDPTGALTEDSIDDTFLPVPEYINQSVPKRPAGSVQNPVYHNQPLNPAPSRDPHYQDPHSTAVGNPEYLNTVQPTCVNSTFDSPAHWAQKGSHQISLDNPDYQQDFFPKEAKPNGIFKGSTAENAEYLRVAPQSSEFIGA
T9 sequence (P00533 25-1210 C797S/L858R): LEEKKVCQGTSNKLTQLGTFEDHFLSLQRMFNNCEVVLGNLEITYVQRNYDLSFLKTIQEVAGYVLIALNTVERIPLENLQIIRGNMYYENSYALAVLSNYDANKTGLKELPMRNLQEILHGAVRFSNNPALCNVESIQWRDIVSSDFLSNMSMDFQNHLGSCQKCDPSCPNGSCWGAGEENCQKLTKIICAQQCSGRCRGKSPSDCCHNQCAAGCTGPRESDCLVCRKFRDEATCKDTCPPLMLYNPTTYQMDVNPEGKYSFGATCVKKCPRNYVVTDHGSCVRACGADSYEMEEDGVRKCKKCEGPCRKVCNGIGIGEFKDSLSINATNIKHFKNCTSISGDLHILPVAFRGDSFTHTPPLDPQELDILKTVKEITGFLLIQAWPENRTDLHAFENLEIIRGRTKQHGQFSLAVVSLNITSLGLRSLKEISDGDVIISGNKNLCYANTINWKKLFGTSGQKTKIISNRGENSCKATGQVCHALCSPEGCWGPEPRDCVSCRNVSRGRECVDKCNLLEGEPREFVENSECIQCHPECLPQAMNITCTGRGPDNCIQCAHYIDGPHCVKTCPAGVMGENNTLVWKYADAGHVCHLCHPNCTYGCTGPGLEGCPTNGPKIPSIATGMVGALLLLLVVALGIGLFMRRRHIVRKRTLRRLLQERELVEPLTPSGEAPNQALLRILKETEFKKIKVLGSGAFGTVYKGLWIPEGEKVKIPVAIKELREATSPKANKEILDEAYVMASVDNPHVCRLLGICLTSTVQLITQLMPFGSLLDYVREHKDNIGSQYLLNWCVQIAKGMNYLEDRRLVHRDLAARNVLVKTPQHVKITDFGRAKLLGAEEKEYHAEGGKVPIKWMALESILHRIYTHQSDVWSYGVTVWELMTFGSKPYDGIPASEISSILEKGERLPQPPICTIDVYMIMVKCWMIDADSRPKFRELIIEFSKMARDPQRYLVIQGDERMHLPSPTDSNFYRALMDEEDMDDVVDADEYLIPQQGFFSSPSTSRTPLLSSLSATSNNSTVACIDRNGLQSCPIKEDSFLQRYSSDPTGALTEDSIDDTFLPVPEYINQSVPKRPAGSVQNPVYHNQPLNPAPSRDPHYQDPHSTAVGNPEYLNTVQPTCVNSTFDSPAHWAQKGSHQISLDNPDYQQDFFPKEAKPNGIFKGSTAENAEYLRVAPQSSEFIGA
T5 sequence (P00533 with tags, fused parts or gaps DEL746-750/T790M limits assumed): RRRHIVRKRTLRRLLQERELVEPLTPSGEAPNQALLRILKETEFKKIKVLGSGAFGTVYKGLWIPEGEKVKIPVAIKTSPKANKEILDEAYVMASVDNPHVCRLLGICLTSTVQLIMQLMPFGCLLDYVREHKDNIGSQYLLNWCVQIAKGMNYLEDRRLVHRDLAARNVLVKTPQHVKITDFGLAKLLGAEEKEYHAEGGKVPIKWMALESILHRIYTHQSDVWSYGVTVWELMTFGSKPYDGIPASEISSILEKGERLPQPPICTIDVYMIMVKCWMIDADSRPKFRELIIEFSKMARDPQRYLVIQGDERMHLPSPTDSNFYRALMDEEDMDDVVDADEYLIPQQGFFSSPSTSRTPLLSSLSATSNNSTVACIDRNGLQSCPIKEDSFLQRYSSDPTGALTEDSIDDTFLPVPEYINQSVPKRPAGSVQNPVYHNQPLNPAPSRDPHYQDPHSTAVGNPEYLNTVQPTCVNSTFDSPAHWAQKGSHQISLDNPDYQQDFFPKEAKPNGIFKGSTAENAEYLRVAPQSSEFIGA

SMILES	IC50 (EGFR wild type)	IC50 (EGFR L858R)	IC50 (EGFR L858R/T790M)	IC50 (EGFR Exon19Del)	IC50 (EGFR Exon19Del/T790M)	IC50 (EGFR[T790M/C797S/L858R])	IC50 [1]	IC50 (EGFR (d746-750 C797S))	IC50 (EGFR (C797S L858R))	GI50 [2, 3]	GI50 [2, 4]	GI50 [2, 5]	GI50 [2, 6]	GI50 [2, 7]	GI50 [2, 8]	GI50 [2, 9]	GI50 (PC-9)	GI50 (A-431; A-431 cells)	GI50 [2, 10]	GI50 [2, 11]	other results
CN1CCN(C2CCN(c3ccc4nc5n(c4c3)C34CCC(CN(CCOc6c(cnn6C)-c6cc(cn(C)c6=O)C(=O)N5)C3)C4)CC2)CC1 (single isomer, unassigned) [Example A106A]	> 5000 nM	1750 nM	> 5000 nM	0.594 µM	> 5000 nM	> 5000 nM	2820 nM	446 nM	> 5000 nM	0.113 µM	0.322 µM	0.268 µM	0.143 µM	0.316 µM	0.392 µM	0.355 µM	0.418 µM	2.5 µM	–	–	–
CN1CCN(c2ccc3nc4n(c3c2)C23CCC(CN(CCOc5c(cnn5C)-c5cc(cn(C)c5=O)C(=O)N4)C2)C3)CC1 (single isomer, unassigned) [Example A63B]	8 nM	1.6 nM	0.92 nM	0.00086 µM	0.94 nM	0.96 nM	1.1 nM	0.51 nM	1.1 nM	0.00067 µM	0.0014 µM	0.0011 µM	0.0031 µM	0.0013 µM	0.0086 µM	0.0019 µM	0.005 µM	0.62 µM	–	–	–
Cn1ncc2c1OCCN1CC3CCC(C3)(C1)n1c(nc3ccc(N4CCC(N5CC(F)C5)CC4)cc31)NC(=O)c1cc-2c(=O)n(C)c1 (single isomer, unassigned) [Example A87B]	36 nM	9.3 nM	8.8 nM	0.0028 µM	9.5 nM	8.7 nM	8.6 nM	4.1 nM	8.9 nM	0.0007 µM	0.004 µM	0.0046 µM	0.0079 µM	0.0077 µM	0.013 µM	0.0034 µM	0.025 µM	5.97 µM	–	–	–
CN1CCCC12CN(c1ccc3nc4n(c3c1)C13CCC(CN(CCOc5c(cnn5C)-c5cc(cn(C)c5=O)C(=O)N4)C1)C3)C2 (single isomer, unassigned) [Example A76A]	> 5000 nM	2860 nM	> 5000 nM	0.45 µM	> 5000 nM	> 5000 nM	4860 nM	503 nM	4300 nM	0.272 µM	0.564 µM	0.536 µM	0.304 µM	0.98 µM	0.942 µM	0.584 µM	0.81 µM	7.93 µM	–	–	–
CC1CCCCOc2c(cnn2C)-c2cc(cn(C)c2=O)C(=O)Nc2nc3ccc(N4CCN(C)CC4)cc3n21 (stereo not drawn) [Example A19, 5,12,26-Trimethyl-16-(4-methylpiperazin-1-yl)-7-oxa-4,5,13,20,22,26-hexaazapentacyclo[22.3.1.0^{2,6}.0^{13,21}.0^{14,19}]octacosa-1(28),2(6),3,14,16,18,20,24-octaene-23,27-dione]	> 5000 nM	625 nM	632 nM	0.022 µM	29 nM	214 nM	16 nM	19 nM	283 nM	–	–	–	–	–	–	–	–	–	0.0066 µM	0.113 µM	GI50 [2, 12]: 0.147 µM; GI50 [2, 13]: 0.098 µM; GI50 [2, 14]: 0.246 µM; GI50 [2, 15]: 0.085 µM; GI50 [2, 16]: 0.085 µM; GI50 (PC-9; Homo sapiens, PC-9, 72 h): 0.856 µM; GI50 (A-431; [17]): 1.34 µM
C[C@@H]1CCCOc2c(cnn2C)-c2cc(cn(C)c2=O)C(=O)Nc2nc3ccc(N4CCC(N(C)C)C(F)(F)C4)cc3n2C1 (stereo partly drawn) [Example A51]	1830 nM	94 nM	33 nM	0.013 µM	12 nM	24 nM	12 nM	4.7 nM	31 nM	–	–	–	–	–	–	–	–	–	0.0076 µM	0.035 µM	GI50 [2, 12]: 0.046 µM; GI50 [2, 13]: 0.038 µM; GI50 [2, 14]: 0.036 µM; GI50 [2, 15]: 0.065 µM; GI50 [2, 16]: 0.065 µM; GI50 (PC-9; Homo sapiens, PC-9, 72 h): 0.062 µM; GI50 (A-431; [17]): 1.04 µM
